The target of one assay is T1, macrophage Gpr132 (Mus musculus, UniProt Q9Z282).
T1 construct: endogenous in cells; host or cells: bone marrow-derived macrophages (BMDMs) from WT C57BL/6 mice; Gpr132-KO BMDMs served as negative control
T1 sequence (Q9Z282 1-382): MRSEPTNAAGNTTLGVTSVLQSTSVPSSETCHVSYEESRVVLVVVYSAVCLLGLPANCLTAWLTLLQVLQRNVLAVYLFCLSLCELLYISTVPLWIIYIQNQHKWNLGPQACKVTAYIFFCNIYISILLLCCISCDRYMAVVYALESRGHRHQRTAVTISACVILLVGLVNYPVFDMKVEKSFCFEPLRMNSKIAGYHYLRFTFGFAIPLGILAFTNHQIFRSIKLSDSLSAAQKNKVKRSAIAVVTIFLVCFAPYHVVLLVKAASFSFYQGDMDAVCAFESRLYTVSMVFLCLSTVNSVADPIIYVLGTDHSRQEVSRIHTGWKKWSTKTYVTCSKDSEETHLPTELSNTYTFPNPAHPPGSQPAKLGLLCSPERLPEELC
Put plainly: Gpr132 co-immunoprecipitation with LC-MS quantification of lactate. Type of assay: binding. The note with it: lactate of <3 kDa EO771 CM, BMDM lysate. On the procedure:
To determine whether lactate in the <3 kDa fraction of EO771 CM could bind to macrophage Gpr132, co-immunoprecipitation with anti-Gpr132 in WT and Gpr132-KO BMDMs was performed. Lactate pulled down by Gpr132 was quantified by liquid chromatography-mass spectrometry (LC-MS).
WT or Gpr132-KO BMDM lysate was incubated with concentrated <3 kDa EO771 CM for 4 hrs. This mixture of 1 ml volume was then incubated with 10 μl anti-Gpr132 antibody and 40 μl protein A/G plus-agarose beads overnight at 4° C. After the beads were washed, the IP eluent was collected for lactate quantification. Lactate was extracted and analyzed as reported (7). Briefly, 400 μl of cold MeOH was added to 100 μl of the IP eluent. Samples were mixed and then stored at −80° C. overnight. The next morning, samples were spun at 14,000 g for 10 min, and the supernatant was collected. After drying the supernatant via speedvac, the extract was dissolved in H2O (40 μl) and a portion of this sample (10 μl) analyzed by LC-MS. Lactate was measured using a TSQ Quantiva LC-MS instrument fitted with a Luna NH2 HPLC column ([…], 4.6 mm×100 mm, Phenomenex). The following LC solvents were used: buffer A, 95:5 H2O/ACN, 20 mM ammonium hydroxide, 20 mM ammonium acetate; buffer B, 100% ACN. […] Relative abundance of lactate was determined by measuring the lactate peak area.

Assay [1] deals with breast cancer cells (4T1.2, EO771). Put plainly: Boyden chamber assay, cancer cell migration. Type of assay: cell-based, mouse. On the procedure: FIGS. 11A-11C. Lactate-activated macrophage promotes cancer cell adhesion, migration and invasion via Gpr132. (FIG. 11A) Adherence assays. 4T1.2 cells were suspended in fibronectin ([…]) pre-coated plates with CM from spleen-derived macrophages (mf) that were treated with 4T1.2 CM or lactate (5 mM) with or without Gpr132 antibody (6 mg/ml) or normal IgG (6 mg/ml) for 10 min. The adhered cells were stained with crystal violet, dissolved in 1% Triton X-100 and measured by OD590. (FIGS. 11B-11C) Boyden chamber assay of cancer cell migration and invasion. 4T1.2 cells (B) or EO771 cells (FIG. 11C) were plated on the upper chamber inserts, with untreated (Control), 4T1.2 CM-activated or lactate-activated spleen-derived WT or Gpr132-KO macrophages plated in the lower chambers. For invasion assay, the inserts were pre-coated with 60 μl matrigel. After migration for 6 hrs (FIG. 11B) or invasion for 24 hrs (FIG. 11C), the migrated or invaded cells were stained with crystal violet and counted as cells per field of view under microscope (n=3-4); For (FIG. 11C), the first bar of each data set of the bar graphs represents the control mf, and the second bar represents Gpr132KO; *p<0.05; **p<0.01; ***p<0.005; ****p<0.001. Scale bar, 500 μm.
FIGS. 23A-23B. Cancer cell-derived lactate activates macrophages to promote cancer cell migration and invasion via Gpr132. (FIGS. 23A-23B) Boyden chamber assay. EO771 or 4T1.2 cells were cultured in the presence or absence of oxamic acid (90 mM) for 3 days. CM was harvested after the cells were cultured for another 24 hrs without oxamic acid. As a rescue, CM of oxamic acid-treated EO771 or 4T1.2 cells was supplemented with exogenous lactate. […] After migration for 6 hrs (FIG. 23A) or invasion for 24 hrs (FIG. 23B), the migrated or invaded cells were stained with crystal violet and counted as cells per field of view under microscope (n=3-4); for (FIG. 23A), the bars in each data set of the bar graph represent, from left to right, control, EO771, Oxamic acid, and Oxamic acid+Lactate; for (FIG. 23B), the bars in each data set of the bar graph represent, from left to right, control, 4T1.2CM, Oxamic acid, and Oxamic acid+Lactate; *p<0.05; ****p<0.001. […]
Migration or invasion of breast cancer cells was examined using 24-well Boyden chambers (Corning, Corning, N.Y.) with transwell inserts of […] pore size, coated without (for migration) or with matrigel (for invasion) as previously reported. […] The migrated or invaded cells were fixed with methanol and stained with crystal violet (0.05%, sigma), and then counted as cells per field of view under microscope or measured as OD570 after crystal violet was dissolved.

Results on one molecule are retold here after US20210095293A1, “METHODS OF TREATING CANCERS WITH GPR132 INHIBITORS” (The Board of Regents of the University of Texas System, priority 2016, published 2021).

In the case of `CC(O)C(=O)O` (stereo not shown) [lactate], the “lactate enrichment in Gpr132 co-IP eluent, WT vs Gpr132-KO macrophages” value at macrophage Gpr132 amounted to 7.1 fold. Besides, the “number of migrated cancer cells with activated WT macrophages” value in assay [1] (4T1.2 cells, 6 hrs, vs untreated WT macrophages) is “significantly enhanced”. The “effects on cancer cell migration with Gpr132-KO macrophages” value in assay [1] (Gpr132 deletion in macrophages) is listed as “attenuated”. Moreover, the “rescue of migration by addition to oxamic acid-pretreated cancer cell CM” value in assay [1] (exogenous lactate, WT macrophages) was “restored”.
